Patent publication US11306101B2 (Celgene Corporation, priority 2019, dated 2022)

Target: T1, CK1α (Homo sapiens, UniProt P48729+Q96SW2)
T1 construct: expressed in transfected cells
Assay: CK1α ePL degradation assay in MDS-L cells
Type: cell-based
Conditions: MDS-L cells expressing ePL-tagged CK1α; for DC50: concentration giving 50% CK1α degradation vs DMSO control; for Y: lowest measured CK1α level normalized to DMSO control
How it was run: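 Degradation efficiency is reported as Y value, the minimum CK1α level (percent of DMSO control) across doses. Readout used InCELL Hunter luminescent detection after MDS-L cell exposure at 37° C for stated times, doses 10 μM down to 0.0005 μM in 3-fold steps.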

T1 sequence (P48729 whole entry): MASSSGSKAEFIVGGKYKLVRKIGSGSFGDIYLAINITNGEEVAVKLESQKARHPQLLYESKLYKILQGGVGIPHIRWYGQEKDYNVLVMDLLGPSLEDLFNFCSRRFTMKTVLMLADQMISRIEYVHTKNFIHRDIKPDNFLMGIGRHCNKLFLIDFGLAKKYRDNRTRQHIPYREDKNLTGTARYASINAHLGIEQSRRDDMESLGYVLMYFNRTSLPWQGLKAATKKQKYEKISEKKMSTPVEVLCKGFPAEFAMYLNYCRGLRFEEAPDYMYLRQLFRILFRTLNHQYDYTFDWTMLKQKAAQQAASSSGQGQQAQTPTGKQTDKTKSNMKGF
T1 sequence (Q96SW2 whole entry): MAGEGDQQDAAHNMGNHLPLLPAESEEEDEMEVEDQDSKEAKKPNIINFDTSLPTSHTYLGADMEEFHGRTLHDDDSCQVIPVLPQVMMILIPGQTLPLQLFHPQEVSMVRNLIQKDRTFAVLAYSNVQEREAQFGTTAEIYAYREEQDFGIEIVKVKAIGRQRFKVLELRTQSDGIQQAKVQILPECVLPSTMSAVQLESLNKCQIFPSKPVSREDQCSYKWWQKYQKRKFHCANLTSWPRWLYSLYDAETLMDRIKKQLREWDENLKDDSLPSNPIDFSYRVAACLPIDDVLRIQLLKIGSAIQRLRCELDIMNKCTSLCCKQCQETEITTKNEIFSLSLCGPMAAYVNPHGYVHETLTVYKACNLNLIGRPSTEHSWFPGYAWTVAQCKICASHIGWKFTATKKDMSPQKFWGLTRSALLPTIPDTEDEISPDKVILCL
T1 sequence (Q16531 whole entry partner): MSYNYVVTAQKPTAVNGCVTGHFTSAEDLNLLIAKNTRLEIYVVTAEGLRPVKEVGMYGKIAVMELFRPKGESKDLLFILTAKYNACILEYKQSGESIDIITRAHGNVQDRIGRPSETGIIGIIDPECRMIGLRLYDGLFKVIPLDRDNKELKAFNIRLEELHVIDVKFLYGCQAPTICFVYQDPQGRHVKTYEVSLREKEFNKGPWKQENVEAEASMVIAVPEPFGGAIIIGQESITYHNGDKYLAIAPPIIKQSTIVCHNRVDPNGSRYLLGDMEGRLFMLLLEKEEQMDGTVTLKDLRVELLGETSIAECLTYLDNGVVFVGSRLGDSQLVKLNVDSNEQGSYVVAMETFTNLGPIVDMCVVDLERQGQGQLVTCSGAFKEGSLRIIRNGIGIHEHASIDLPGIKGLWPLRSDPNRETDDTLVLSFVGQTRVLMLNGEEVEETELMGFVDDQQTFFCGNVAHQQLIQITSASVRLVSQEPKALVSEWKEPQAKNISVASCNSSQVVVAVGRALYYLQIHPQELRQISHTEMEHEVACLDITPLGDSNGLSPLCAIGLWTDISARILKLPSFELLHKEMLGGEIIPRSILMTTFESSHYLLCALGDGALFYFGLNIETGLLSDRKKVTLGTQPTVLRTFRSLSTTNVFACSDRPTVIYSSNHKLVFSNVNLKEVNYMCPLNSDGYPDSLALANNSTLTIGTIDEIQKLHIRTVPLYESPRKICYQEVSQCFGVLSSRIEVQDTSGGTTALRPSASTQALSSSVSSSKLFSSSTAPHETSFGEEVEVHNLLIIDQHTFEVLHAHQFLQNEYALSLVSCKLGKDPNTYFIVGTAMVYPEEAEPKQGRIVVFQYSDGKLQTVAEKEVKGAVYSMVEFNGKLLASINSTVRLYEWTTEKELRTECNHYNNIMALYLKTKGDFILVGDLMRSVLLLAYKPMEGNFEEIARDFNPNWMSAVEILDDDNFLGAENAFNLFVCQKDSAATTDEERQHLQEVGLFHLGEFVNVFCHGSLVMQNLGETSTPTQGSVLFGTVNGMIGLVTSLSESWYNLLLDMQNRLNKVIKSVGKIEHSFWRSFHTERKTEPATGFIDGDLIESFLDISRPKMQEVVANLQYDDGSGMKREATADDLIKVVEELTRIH

| SMILES | DC50 [nM] | Y |
| --- | --- | --- |
| CC(C)[C@@H](NC(=O)c1ccc2c(c1)CN(C1CCC(=O)NC1=O)C2=O)c1ccccc1 (stereo partly drawn) [Example 124, 2-(2,6-dioxopiperidin-3-yl)-N-((R)-2-methyl-1-phenylpropyl)-1-oxoisoindoline-5-carboxamide] | < 100 | * (a Y value (shown as *) of 0<Y≤20%) |
| O=C1CCC(N2Cc3cc(C(=O)N[C@H](c4cccc(C(F)(F)F)n4)C(F)(F)F)ccc3C2=O)C(=O)N1 (stereo partly drawn) [Example 125, 2-(2,6-dioxopiperidin-3-yl)-1-oxo-N-((R)-2,2,2-trifluoro-1-(6-(trifluoromethyl)pyridin-2-yl)ethyl)isoindoline-5-carboxamide] | < 100 | * (a Y value (shown as *) of 0<Y≤20%) |
| O=C1CCC(N2Cc3cc(C(=O)N[C@H](c4ccc(C(F)(F)F)cn4)C(F)(F)F)ccc3C2=O)C(=O)N1 (stereo partly drawn) [Example 126, 2-(2,6-dioxopiperidin-3-yl)-1-oxo-N-((R)-2,2,2-trifluoro-1-(5-(trifluoromethyl)pyridin-2-yl)ethyl)isoindoline-5-carboxamide] | < 100 | ** (a Y value (shown as**) of 20%<Y≤35%) |
| O=C1CCC(N2Cc3cc(C(=O)N[C@H](c4ncc(Cl)cc4F)C(F)(F)F)ccc3C2=O)C(=O)N1 (stereo partly drawn) [Example 127, N-((R)-1-(5-chloro-3-fluoropyridin-2-yl)-2,2,2-trifluoroethyl)-2-(2,6-dioxopiperidin-3-yl)-1-oxoisoindoline-5-carboxamide] | < 100 | * (a Y value (shown as *) of 0<Y≤20%) |
| Cc1ccccc1[C@@H](NC(=O)c1ccc2c(c1F)CN(C1CCC(=O)NC1=O)C2=O)C(F)(F)F (stereo partly drawn) [Example 128, 2-(2,6-dioxopiperidin-3-yl)-4-fluoro-1-oxo-N-((R)-2,2,2-trifluoro-1-o-tolylethyl)isoindoline-5-carboxamide] | < 100 | * (a Y value (shown as *) of 0<Y≤20%) |
| O=C1CCC(N2Cc3c(ccc(C(=O)N[C@@H](CC(F)(F)F)c4ccc(Cl)cc4)c3F)C2=O)C(=O)N1 (stereo partly drawn) [Example 129, N-((S)-1-(4-chlorophenyl)-3,3,3-trifluoropropyl)-2-(2,6-dioxopiperidin-3-yl)-4-fluoro-1-oxoisoindoline-5-carboxamide] | 500 to 1000 | *** (a Y value (shown as***) of 35%<Y<50%) |
| O=C1CCC(N2Cc3c(ccc(C(=O)N[C@H](c4ccc(OC5CC5)cc4)C(F)(F)F)c3F)C2=O)C(=O)N1 (stereo partly drawn) [Example 130, N-((R)-1-(4-cyclopropoxyphenyl)-2,2,2-trifluoroethyl)-2-(2,6-dioxopiperidin-3-yl)-4-fluoro-1-oxoisoindoline-5-carboxamide] | 100 to 500 | ** (a Y value (shown as**) of 20%<Y≤35%) |
| C[C@@H](NC(=O)c1ccc2c(c1)CN(C1CCC(=O)NC1=O)C2=O)c1ccccc1C#N (stereo partly drawn) [Example 131, N-((R)-1-(2-cyanophenyl)ethyl)-2-(2,6-dioxopiperidin-3-yl)-1-oxoisoindoline-5-carboxamide] | < 100 | ** (a Y value (shown as**) of 20%<Y≤35%) |
| C[C@@H](NC(=O)c1ccc2c(c1)CN(C1CCC(=O)NC1=O)C2=O)C1CCCC1 (stereo partly shown) [Example 132] | 100 to 500 | ** (a Y value (shown as**) of 20%<Y≤35%) |
| O=C1CCC(N2Cc3cc(C(=O)N[C@H](c4ncc(F)cc4F)C(F)(F)F)ccc3C2=O)C(=O)N1 (stereo partly drawn) [Example 133, N-((R)-1-(3,5-difluoropyridin-2-yl)-2,2,2-trifluoroethyl)-2-(2,6-dioxopiperidin-3-yl)-1-oxoisoindoline-5-carboxamide] | < 100 | * (a Y value (shown as *) of 0<Y≤20%) |
| Cc1cccc([C@@H](NC(=O)c2ccc3c(c2F)CN(C2CCC(=O)NC2=O)C3=O)C(F)(F)F)c1 (stereo partly drawn) [Example 134, 2-(2,6-dioxopiperidin-3-yl)-4-fluoro-1-oxo-N-((R)-2,2,2-trifluoro-1-m-tolylethyl)isoindoline-5-carboxamide] | < 100 | ** (a Y value (shown as**) of 20%<Y≤35%) |
| O=C1CCC(N2Cc3c(ccc(C(=O)N[C@H](c4ccc(OC(F)(F)F)cc4)C(F)(F)F)c3F)C2=O)C(=O)N1 (stereo partly drawn) [Example 135, 2-(2,6-dioxopiperidin-3-yl)-4-fluoro-1-oxo-N-((R)-2,2,2-trifluoro-1-(4-(trifluoromethoxy)phenyl)ethyl)isoindoline-5-carboxamide] | 100 to 500 | ** (a Y value (shown as**) of 20%<Y≤35%) |
| O=C1CCC(N2Cc3c(ccc(C(=O)N[C@H](c4ccccc4OC(F)(F)F)C(F)(F)F)c3F)C2=O)C(=O)N1 (stereo partly drawn) [Example 136, 2-(2,6-dioxopiperidin-3-yl)-4-fluoro-1-oxo-N-((R)-2,2,2-trifluoro-1-(2-(trifluoromethoxy)phenyl)ethyl)isoindoline-5-carboxamide] | < 100 | * (a Y value (shown as *) of 0<Y≤20%) |
| O=C1CCC(N2Cc3c(ccc(C(=O)N[C@H](C4CCCC4)C(F)(F)F)c3F)C2=O)C(=O)N1 (stereo partly drawn) [Example 137, N-((R)-1-cyclopentyl-2,2,2-trifluoroethyl)-2-(2,6-dioxopiperidin-3-yl)-4-fluoro-1-oxoisoindoline-5-carboxamide] | < 100 | * (a Y value (shown as *) of 0<Y≤20%) |
| O=C1CCC(N2Cc3c(ccc(C(=O)N[C@@H](C(F)(F)F)C45CC(C4)C5)c3F)C2=O)C(=O)N1 (stereo partly drawn) [Example 138, N-((R)-1-(bicyclo[1.1.1]pentan-1-yl)-2,2,2-trifluoroethyl)-2-(2,6-dioxopiperidin-3-yl)-4-fluoro-1-oxoisoindoline-5-carboxamide] | < 100 | * (a Y value (shown as *) of 0<Y≤20%) |
| O=C1CCC(N2Cc3c(ccc(C(=O)N[C@H](c4ncccc4Cl)C(F)(F)F)c3F)C2=O)C(=O)N1 (stereo partly drawn) [Example 139, N-((R)-1-(3-chloropyridin-2-yl)-2,2,2-trifluoroethyl)-2-(2,6-dioxopiperidin-3-yl)-4-fluoro-1-oxoisoindoline-5-carboxamide] | < 100 | * (a Y value (shown as *) of 0<Y≤20%) |
| O=C1CCC(N2Cc3cc(C(=O)N[C@H](c4cccc(CN5CCOCC5)c4)C(F)(F)F)ccc3C2=O)C(=O)N1 (stereo partly drawn) [Example 140, 2-(2,6-dioxopiperidin-3-yl)-1-oxo-N-((R)-2,2,2-trifluoro-1-(3-(morpholinomethyl)phenyl)ethyl)isoindoline-5-carboxamide] | < 100 | * (a Y value (shown as *) of 0<Y≤20%) |
| CN(C)Cc1ccc([C@@H](NC(=O)c2ccc3c(c2)CN(C2CCC(=O)NC2=O)C3=O)C(F)(F)F)cc1 (stereo partly drawn) [Example 141, N-((R)-1-(4-((dimethylamino)methyl)phenyl)-2,2,2-trifluoroethyl)-2-(2,6-dioxopiperidin-3-yl)-1-oxoisoindoline-5-carboxamide] | < 100 | * (a Y value (shown as *) of 0<Y≤20%) |
| O=C1CCC(N2Cc3cc(C(=O)N[C@H](c4ccc(CN5CCOCC5)cc4)C(F)(F)F)ccc3C2=O)C(=O)N1 (stereo partly drawn) [Example 142, 2-(2,6-dioxopiperidin-3-yl)-1-oxo-N-((R)-2,2,2-trifluoro-1-(4-(morpholinomethyl)phenyl)ethyl)isoindoline-5-carboxamide] | < 100 | * (a Y value (shown as *) of 0<Y≤20%) |
| O=C1CCC(N2Cc3cc(C(=O)N[C@H](C4CCN(CC(F)(F)F)CC4)C(F)(F)F)ccc3C2=O)C(=O)N1 (stereo partly drawn) [Example 143, 2-(2,6-dioxopiperidin-3-yl)-1-oxo-N-((R)-2,2,2-trifluoro-1-(1-(2,2,2-trifluoroethyl)piperidin-4-yl)ethyl)isoindoline-5-carboxamide] | 100 to 500 | * (a Y value (shown as *) of 0<Y≤20%) |
| Cc1ccc([C@@H](NC(=O)c2ccc3c(c2F)CN(C2CCC(=O)NC2=O)C3=O)C(F)(F)F)cc1 (stereo partly drawn) [Example 144, 2-(2,6-dioxopiperidin-3-yl)-4-fluoro-1-oxo-N-((R)-2,2,2-trifluoro-1-p-tolylethyl)isoindoline-5-carboxamide] | 100 to 500 | * (a Y value (shown as *) of 0<Y≤20%) |
| O=C1CCC(N2Cc3c(ccc(C(=O)N[C@H](c4ccc(F)cc4Cl)C(F)(F)F)c3F)C2=O)C(=O)N1 (stereo partly drawn) [Example 145, N-((R)-1-(2-chloro-4-fluorophenyl)-2,2,2-trifluoroethyl)-2-(2,6-dioxopiperidin-3-yl)-4-fluoro-1-oxoisoindoline-5-carboxamide] | < 100 | * (a Y value (shown as *) of 0<Y≤20%) |
| O=C1CCC(N2Cc3c(ccc(C(=O)N[C@@H](CC(F)(F)F)c4cccc(F)c4)c3F)C2=O)C(=O)N1 (stereo partly drawn) [Example 146, 2-(2,6-dioxopiperidin-3-yl)-4-fluoro-1-oxo-N-((S)-3,3,3-trifluoro-1-(3-fluorophenyl)propyl)isoindoline-5-carboxamide] | 100 to 500 | ** (a Y value (shown as**) of 20%<Y≤35%) |
| O=C1CCC(N2Cc3cc(C(=O)N[C@H](c4ccc(Oc5ccccc5)cc4)C(F)(F)F)ccc3C2=O)C(=O)N1 (stereo partly drawn) [Example 147, 2-(2,6-dioxopiperidin-3-yl)-1-oxo-N-((R)-2,2,2-trifluoro-1-(4-phenoxyphenyl)ethyl)isoindoline-5-carboxamide] | 100 to 500 | ** (a Y value (shown as**) of 20%<Y≤35%) |
| O=C1CCC(N2Cc3cc(C(=O)N[C@H](c4ccc(OC5CC5)cc4)C(F)(F)F)ccc3C2=O)C(=O)N1 (stereo partly drawn) [Example 148, N-((R)-1-(4-cyclopropoxyphenyl)-2,2,2-trifluoroethyl)-2-(2,6-dioxopiperidin-3-yl)-1-oxoisoindoline-5-carboxamide] | < 100 | * (a Y value (shown as *) of 0<Y≤20%) |
| O=C1CCC(N2Cc3cc(C(=O)N[C@@H](CC(F)(F)F)c4ccc(Cl)cc4)ccc3C2=O)C(=O)N1 (stereo partly drawn) [Example 149, N-((S)-1-(4-chlorophenyl)-3,3,3-trifluoropropyl)-2-(2,6-dioxopiperidin-3-yl)-1-oxoisoindoline-5-carboxamide] | 500 to 1000 | ** (a Y value (shown as**) of 20%<Y≤35%) |
